Results: ChEMBL document CHEMBL3526024, “Oral availability of cefadroxil depends on ABCC3 and ABCC4” (Drug Metab Dispos, 2012)
One block for each molecule: values may come before it.

Legend:
[1] = target: ATP-binding cassette sub-family C member 2 (Homo sapiens, UniProt Q92887); assay: Inhibition of recombinant human ABCC2 expressed in insect Sf21 cell plasma membrane vesicles assessed as inhibition of transporter-mediated [3H]-estradiol-17beta-glucuronide uptake by liquid scintillation counting analysis; format: ADME, cell membranes
Sequence of ATP-binding cassette sub-family C member 2 (Q92887 whole entry): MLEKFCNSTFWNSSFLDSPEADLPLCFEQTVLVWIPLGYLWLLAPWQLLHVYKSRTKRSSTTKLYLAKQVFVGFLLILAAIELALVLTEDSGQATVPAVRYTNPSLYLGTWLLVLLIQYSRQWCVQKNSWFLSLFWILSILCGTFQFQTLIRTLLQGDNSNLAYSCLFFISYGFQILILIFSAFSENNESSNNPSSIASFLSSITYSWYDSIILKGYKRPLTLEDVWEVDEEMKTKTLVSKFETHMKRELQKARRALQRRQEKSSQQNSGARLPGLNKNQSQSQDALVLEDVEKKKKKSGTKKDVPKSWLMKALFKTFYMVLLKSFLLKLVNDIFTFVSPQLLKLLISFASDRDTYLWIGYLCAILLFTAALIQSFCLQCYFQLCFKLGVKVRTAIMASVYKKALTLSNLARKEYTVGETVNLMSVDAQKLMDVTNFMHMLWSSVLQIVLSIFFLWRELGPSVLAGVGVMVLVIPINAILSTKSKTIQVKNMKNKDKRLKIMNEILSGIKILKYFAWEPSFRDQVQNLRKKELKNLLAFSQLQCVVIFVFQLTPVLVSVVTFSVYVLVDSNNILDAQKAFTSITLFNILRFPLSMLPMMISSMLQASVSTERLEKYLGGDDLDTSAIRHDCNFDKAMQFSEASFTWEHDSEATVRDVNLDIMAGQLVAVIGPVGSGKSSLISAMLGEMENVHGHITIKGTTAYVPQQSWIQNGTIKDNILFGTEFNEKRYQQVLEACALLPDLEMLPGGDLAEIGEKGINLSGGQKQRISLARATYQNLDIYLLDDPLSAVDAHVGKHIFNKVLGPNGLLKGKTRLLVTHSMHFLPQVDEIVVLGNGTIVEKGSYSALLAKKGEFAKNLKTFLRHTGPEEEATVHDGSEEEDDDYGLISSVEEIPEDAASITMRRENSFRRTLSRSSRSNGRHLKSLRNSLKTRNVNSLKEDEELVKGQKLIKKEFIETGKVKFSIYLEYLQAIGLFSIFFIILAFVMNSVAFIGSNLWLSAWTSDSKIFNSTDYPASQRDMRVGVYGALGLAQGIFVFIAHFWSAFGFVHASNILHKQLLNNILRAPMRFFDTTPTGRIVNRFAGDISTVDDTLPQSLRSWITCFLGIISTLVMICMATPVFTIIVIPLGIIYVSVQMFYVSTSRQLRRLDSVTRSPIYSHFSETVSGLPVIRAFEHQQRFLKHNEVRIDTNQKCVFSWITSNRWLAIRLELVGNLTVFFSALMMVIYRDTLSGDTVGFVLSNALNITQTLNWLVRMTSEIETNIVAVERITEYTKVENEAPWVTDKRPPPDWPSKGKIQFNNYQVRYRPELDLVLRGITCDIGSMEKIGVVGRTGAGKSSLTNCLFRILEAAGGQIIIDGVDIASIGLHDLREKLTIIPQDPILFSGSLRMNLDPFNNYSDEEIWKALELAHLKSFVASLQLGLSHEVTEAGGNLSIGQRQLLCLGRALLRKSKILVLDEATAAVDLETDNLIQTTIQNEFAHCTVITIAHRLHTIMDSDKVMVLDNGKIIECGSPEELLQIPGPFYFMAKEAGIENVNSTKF

[2] = target: T1, ATP-binding cassette sub-family C member 4 (Homo sapiens, UniProt O15439); assay: Inhibition of recombinant human ABCC4 expressed in baculovirus infected insect Sf21 cell plasma membrane vesicles assessed as inhibition of transporter-mediated [3H]-estradiol-17beta-glucuronide uptake by liquid scintillation counting analysis; format: ADME
T1 sequence (O15439 whole entry): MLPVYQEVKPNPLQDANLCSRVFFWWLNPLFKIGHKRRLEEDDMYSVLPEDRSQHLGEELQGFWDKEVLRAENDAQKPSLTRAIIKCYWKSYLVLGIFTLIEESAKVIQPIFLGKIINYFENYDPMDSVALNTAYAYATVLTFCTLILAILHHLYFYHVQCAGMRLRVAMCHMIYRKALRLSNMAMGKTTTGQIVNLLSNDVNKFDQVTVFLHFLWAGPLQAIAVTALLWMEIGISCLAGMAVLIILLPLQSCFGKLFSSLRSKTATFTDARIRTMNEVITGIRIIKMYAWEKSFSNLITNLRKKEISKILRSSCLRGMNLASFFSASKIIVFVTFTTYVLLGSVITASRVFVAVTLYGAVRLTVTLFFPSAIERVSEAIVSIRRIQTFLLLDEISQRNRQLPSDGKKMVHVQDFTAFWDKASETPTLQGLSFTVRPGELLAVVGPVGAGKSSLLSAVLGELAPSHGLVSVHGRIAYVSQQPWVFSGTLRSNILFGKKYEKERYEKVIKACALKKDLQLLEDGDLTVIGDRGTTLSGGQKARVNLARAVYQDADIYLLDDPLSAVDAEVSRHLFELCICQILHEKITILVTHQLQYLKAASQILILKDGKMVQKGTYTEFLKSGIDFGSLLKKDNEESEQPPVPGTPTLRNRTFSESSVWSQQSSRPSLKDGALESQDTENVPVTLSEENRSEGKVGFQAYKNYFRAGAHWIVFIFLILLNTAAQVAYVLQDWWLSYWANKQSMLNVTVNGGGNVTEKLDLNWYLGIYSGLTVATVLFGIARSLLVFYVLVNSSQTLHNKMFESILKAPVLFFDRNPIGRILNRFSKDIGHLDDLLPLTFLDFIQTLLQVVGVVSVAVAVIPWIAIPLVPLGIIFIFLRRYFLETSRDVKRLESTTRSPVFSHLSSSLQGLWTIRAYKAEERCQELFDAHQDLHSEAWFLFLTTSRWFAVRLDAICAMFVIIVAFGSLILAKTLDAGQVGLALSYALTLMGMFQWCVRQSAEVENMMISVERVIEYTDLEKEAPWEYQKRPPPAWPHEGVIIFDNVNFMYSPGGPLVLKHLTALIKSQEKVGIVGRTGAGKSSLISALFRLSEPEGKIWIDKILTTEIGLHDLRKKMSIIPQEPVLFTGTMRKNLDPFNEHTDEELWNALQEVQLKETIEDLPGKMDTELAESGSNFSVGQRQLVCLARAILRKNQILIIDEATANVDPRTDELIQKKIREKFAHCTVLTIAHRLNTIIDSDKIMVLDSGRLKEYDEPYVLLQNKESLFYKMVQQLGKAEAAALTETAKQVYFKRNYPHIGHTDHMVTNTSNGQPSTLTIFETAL

[3] = target: T2, ATP-binding cassette sub-family C member 3 (Homo sapiens, UniProt O15438); assay: Inhibition of recombinant human ABCC3 expressed in baculovirus infected insect Sf21 cell plasma membrane vesicles assessed as inhibition of transporter-mediated [3H]-estradiol-17beta-glucuronide uptake by liquid scintillation counting analysis; format: ADME
T2 sequence (O15438 whole entry): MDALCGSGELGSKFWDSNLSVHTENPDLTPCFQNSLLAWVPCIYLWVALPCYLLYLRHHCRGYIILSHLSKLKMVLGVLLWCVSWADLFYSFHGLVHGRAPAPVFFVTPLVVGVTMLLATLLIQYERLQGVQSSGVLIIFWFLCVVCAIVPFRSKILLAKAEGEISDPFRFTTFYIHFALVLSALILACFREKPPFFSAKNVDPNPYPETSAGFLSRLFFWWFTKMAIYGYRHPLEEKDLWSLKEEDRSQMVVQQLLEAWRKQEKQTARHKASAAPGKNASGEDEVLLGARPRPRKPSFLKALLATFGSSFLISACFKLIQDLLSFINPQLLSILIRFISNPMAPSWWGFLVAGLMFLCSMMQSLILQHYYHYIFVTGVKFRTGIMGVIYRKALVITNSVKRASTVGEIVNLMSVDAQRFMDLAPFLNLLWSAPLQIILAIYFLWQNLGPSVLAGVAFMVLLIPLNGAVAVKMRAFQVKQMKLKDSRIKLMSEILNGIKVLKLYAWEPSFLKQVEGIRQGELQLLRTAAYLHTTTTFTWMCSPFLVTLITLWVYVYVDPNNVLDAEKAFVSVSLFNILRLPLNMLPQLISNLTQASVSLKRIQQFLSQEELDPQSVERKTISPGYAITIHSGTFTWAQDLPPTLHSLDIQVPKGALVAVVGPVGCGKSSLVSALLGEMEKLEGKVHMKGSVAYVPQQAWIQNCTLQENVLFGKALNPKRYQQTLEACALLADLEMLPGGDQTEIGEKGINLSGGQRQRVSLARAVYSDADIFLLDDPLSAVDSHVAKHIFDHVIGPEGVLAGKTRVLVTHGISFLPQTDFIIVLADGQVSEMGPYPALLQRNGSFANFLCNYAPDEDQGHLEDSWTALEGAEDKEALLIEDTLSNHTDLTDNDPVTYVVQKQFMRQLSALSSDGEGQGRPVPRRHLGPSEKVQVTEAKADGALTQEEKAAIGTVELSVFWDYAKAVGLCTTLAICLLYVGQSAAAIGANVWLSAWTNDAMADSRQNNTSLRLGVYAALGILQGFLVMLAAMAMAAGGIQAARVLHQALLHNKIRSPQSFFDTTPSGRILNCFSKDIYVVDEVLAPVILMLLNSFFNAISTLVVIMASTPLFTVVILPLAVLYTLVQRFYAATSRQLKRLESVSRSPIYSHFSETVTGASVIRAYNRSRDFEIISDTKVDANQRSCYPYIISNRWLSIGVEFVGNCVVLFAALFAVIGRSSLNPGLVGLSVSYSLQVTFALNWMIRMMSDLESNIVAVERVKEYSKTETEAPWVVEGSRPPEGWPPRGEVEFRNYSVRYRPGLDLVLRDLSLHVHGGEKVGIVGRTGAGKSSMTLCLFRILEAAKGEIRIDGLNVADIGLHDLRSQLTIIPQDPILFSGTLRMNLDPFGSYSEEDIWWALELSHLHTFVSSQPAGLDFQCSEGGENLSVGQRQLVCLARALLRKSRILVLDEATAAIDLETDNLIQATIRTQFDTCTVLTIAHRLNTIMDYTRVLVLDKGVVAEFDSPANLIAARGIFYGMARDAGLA

[4] = Ratio of recombinant human ABCC4-mediated drug uptake in insect Sf21 cell plasma membrane vesicles to recombinant human ABCC3-mediated drug uptake in insect Sf21 cell plasma membrane vesicles; format: ADME, cell membranes
[5] = test system: Intestine; assay: Drug level in Abcc3-deficient mouse intestine at 5 uM by liquid scintillation counting analysis; format: ADME, tissue-based; details: in vivo
[6] = test system: Liver; assay: Drug level in Abcc3-deficient mouse liver at 5 uM by liquid scintillation counting analysis; format: ADME, tissue-based; details: in vivo
[7] = test system: Liver; assay: Drug level in Abcc4-deficient mouse liver at 5 uM by liquid scintillation counting analysis; format: ADME, tissue-based; details: in vivo
[8] = test system: Kidney; assay: Drug level in Abcc4-deficient mouse kidney at 5 uM by liquid scintillation counting analysis; format: ADME, tissue-based; details: in vivo
[9] = Drug excretion in Abcc3/Abcc4-deficient mouse urine at 5 uM by liquid scintillation counting analysis; format: ADME, tissue-based; details: in vivo
[10] = test system: Jejunum; assay: Drug transport across ligated jejunum in Abcc3/Abcc4-deficient mouse assessed as drug level in portal blood at 5 uM by liquid scintillation counting analysis; format: ADME, tissue-based
[11] = test system: Liver; assay: Drug level in wild type mouse liver at 5 uM by liquid scintillation counting analysis; format: ADME, tissue-based; details: in vivo
[12] = test system: Jejunum; assay: Drug transport across ligated jejunum in Abcc4-deficient mouse assessed as drug level in portal blood at 5 uM by liquid scintillation counting analysis; format: ADME, tissue-based
[13] = target: T1, ATP-binding cassette sub-family C member 4; assay: Activity of recombinant human ABCC4 expressed in baculovirus infected insect Sf21 cell plasma membrane vesicles assessed as transporter-mediated drug uptake at 10 uM by liquid scintillation counting analysis in presence of ATP; format: ADME; details: sf21, 10 µM, TDE = time-dependent effect
[14] = test system: Jejunum; assay: Drug transport across ligated jejunum in Abcc3-deficient mouse assessed as drug level in portal blood at 5 uM by liquid scintillation counting analysis; format: ADME, tissue-based
[15] = test system: Jejunum; assay: Drug transport across ligated jejunum in wild type mouse assessed as drug level in portal blood at 5 uM by liquid scintillation counting analysis; format: ADME, tissue-based; details: TDE = time-dependent effect
[16] = Drug excretion in Abcc3-deficient mouse urine at 5 uM by liquid scintillation counting analysis; format: ADME, tissue-based; details: in vivo
[17] = test system: Kidney; assay: Drug level in Abcc3/Abcc4-deficient mouse kidney at 5 uM by liquid scintillation counting analysis; format: ADME, tissue-based; details: in vivo
[18] = Ratio of recombinant human ABCC4-mediated drug uptake in insect Sf21 cell plasma membrane vesicles to recombinant human ABCC2-mediated drug uptake in insect Sf21 cell plasma membrane vesicles; format: ADME, cell membranes
[19] = test system: Jejunum; assay: Drug transport across apical to basolateral side in Abcc4-deficient mouse jejunal tissue explants at 50 uM by ussing chamber analysis; format: ADME
[20] = Drug uptake in bile of Abcc3/Abcc4-deficient mouse at 5 uM by liquid scintillation counting analysis; format: ADME, tissue-based; details: in vivo
[21] = Drug excretion in wild type mouse urine at 5 uM by liquid scintillation counting analysis; format: ADME, tissue-based; details: in vivo
[22] = Drug excretion in Abcc4-deficient mouse urine at 5 uM by liquid scintillation counting analysis; format: ADME, tissue-based; details: in vivo
[23] = test system: Intestine; assay: Drug level in wild type mouse intestine at 5 uM by liquid scintillation counting analysis; format: ADME, tissue-based; details: in vivo
[24] = test system: Jejunum; assay: Drug transport across ligated jejunum in Abcc3/Abcc4-deficient mouse assessed as drug level in peripheral blood at 5 uM by liquid scintillation counting analysis; format: ADME, tissue-based; details: other
[25] = test system: Intestine; assay: Drug level in Abcc3/Abcc4-deficient mouse intestine at 5 uM by liquid scintillation counting analysis; format: ADME, tissue-based; details: in vivo
[26] = test system: Kidney; assay: Drug level in Abcc3-deficient mouse kidney at 5 uM by liquid scintillation counting analysis; format: ADME, tissue-based; details: in vivo
[27] = test system: Liver; assay: Drug level in Abcc3/Abcc4-deficient mouse liver at 5 uM by liquid scintillation counting analysis; format: ADME, tissue-based; details: in vivo
[28] = target: T2, ATP-binding cassette sub-family C member 3; assay: Activity of recombinant human ABCC3 expressed in baculovirus infected insect Sf21 cell plasma membrane vesicles assessed as transporter-mediated drug uptake at 10 uM by liquid scintillation counting analysis in presence of ATP; format: ADME; details: sf21, 10 µM, TDE = time-dependent effect
[29] = test system: Intestine; assay: Drug level in Abcc4-deficient mouse intestine at 5 uM by liquid scintillation counting analysis; format: ADME, tissue-based; details: in vivo
[30] = test system: Jejunum; assay: Drug transport across apical to basolateral side in Abcc4-deficient mouse jejunal tissue explants at 5 uM by ussing chamber analysis relative to wild type mouse; format: ADME
[31] = test system: Jejunum; assay: Drug transport across apical to basolateral side in Abcc3/Abcc4-deficient mouse jejunal tissue explants at 5 uM by ussing chamber analysis relative to wild type mouse; format: ADME
[32] = test system: Kidney; assay: Drug level in wild type mouse kidney at 5 uM by liquid scintillation counting analysis; format: ADME, tissue-based; details: in vivo
[33] = test system: Jejunum; assay: Drug transport across apical to basolateral side in Abcc3/Abcc4-deficient mouse jejunal tissue explants at 50 uM by ussing chamber analysis; format: ADME
[34] = target: Multidrug resistance-associated protein 1 (Homo sapiens, UniProt P33527); assay: Activity of recombinant human ABCC1 expressed in baculovirus infected insect Sf21 cell plasma membrane vesicles assessed as transporter-mediated drug uptake at 10 uM by liquid scintillation counting analysis in presence of ATP; format: ADME; details: sf21, 10 µM, TDE = time-dependent effect
Sequence of Multidrug resistance-associated protein 1 (P33527 whole entry): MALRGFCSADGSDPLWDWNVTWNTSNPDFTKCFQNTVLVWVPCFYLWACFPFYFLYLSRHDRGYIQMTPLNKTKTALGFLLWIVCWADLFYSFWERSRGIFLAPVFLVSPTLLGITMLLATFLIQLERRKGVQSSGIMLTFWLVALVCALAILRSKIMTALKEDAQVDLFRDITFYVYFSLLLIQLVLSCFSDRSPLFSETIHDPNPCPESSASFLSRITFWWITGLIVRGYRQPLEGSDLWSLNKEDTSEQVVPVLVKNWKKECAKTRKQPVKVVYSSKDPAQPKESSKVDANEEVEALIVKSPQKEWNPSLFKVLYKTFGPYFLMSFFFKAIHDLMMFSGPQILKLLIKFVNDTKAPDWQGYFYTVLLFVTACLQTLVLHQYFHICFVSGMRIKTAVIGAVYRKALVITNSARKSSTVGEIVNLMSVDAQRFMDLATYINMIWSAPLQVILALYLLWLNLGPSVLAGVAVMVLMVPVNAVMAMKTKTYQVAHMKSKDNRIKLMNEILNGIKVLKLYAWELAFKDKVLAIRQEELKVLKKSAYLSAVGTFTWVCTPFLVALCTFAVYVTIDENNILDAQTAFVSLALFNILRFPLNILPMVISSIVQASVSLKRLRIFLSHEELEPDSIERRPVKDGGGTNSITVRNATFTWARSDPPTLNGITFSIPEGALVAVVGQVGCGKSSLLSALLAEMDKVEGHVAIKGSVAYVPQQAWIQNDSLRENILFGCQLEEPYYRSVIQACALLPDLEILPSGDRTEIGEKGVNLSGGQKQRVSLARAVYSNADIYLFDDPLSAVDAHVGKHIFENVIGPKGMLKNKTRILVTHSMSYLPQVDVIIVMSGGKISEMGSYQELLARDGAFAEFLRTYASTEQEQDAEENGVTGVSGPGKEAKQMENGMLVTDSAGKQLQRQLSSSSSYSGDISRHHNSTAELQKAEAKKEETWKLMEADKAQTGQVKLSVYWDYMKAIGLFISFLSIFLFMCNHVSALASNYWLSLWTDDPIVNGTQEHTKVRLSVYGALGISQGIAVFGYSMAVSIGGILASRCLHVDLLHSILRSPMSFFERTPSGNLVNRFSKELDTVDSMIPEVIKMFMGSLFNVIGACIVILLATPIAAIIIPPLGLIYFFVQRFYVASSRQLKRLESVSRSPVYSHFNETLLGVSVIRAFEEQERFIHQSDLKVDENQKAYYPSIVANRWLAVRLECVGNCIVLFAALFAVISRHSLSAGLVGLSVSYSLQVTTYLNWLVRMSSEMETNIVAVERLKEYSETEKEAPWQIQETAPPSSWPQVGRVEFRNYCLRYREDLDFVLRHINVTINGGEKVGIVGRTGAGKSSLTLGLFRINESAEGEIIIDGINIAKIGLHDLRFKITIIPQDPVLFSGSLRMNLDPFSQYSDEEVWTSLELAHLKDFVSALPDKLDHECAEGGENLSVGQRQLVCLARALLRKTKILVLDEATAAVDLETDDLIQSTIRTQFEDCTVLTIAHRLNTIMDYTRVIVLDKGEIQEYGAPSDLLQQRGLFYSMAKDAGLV

[35] = test system: Jejunum; assay: Drug transport across ligated jejunum in wild type mouse assessed as drug level in peripheral blood at 5 uM by liquid scintillation counting analysis; format: ADME, tissue-based; details: other

Compound: CCN1CCN(C(=O)N[C@@H](C(=O)N[C@@H]2C(=O)N3C(C(=O)O)=C(CSc4nnnn4C)CS[C@H]23)c2ccc(O)cc2)C(=O)C1=O [CEFOPERAZONE]
- inhibition (INH) [1]: Active
- inhibition (INH) [2]: Active
- inhibition (INH) [3]: Active

Compound: Cn1nnnc1SCC1=C(C(=O)O)N2C(=O)[C@@H](NC(=O)[C@H](O)c3ccccc3)[C@H]2SC1 [CEFAMANDOLE]
- inhibition (INH) [1]: Active
- inhibition (INH) [2]: Active
- inhibition (INH) [3]: Active

Compound: CO[C@@]1(NC(=O)CSCC#N)C(=O)N2C(C(=O)O)=C(CSc3nnnn3C)CS[C@@H]21 [CEFMETAZOLE]
- inhibition (INH) [1]: Active
- inhibition (INH) [2]: Active
- inhibition (INH) [3]: Active

Compound: N[C@@H](C(=O)N[C@@H]1C(=O)N2C(C(=O)O)=C(Cl)CS[C@H]12)c1ccccc1 [CEFACLOR ANHYDROUS]
- inhibition (INH) [1]: Active
- inhibition (INH) [2]: Active
- inhibition (INH) [3]: Active

Compound: CC1=C(C(=O)O)N2C(=O)[C@@H](NC(=O)[C@H](N)c3ccc(O)cc3)[C@H]2SC1 [CEFADROXIL]
- Ratio [4]: 6
- Drug uptake [5]: Active
- Drug uptake [6]: Active
- Drug uptake [7]: Active
- Drug uptake [8]: Active
- Drug excretion [9]: metabolite_detected
- Drug transport [10]: Not Active
- Drug uptake [11]: Active
- Drug transport [12]: Active
- Activity [13]: tde
- Drug transport [14]: Active
- Drug transport [15]: tde
- Drug excretion [16]: metabolite_detected
- Drug uptake [17]: Active
- Ratio [18]: 3
- Drug transport [19]: Active
- Drug uptake [20]: < 0.4%
- Drug excretion [21]: metabolite_detected
- Drug excretion [22]: metabolite_detected
- Drug uptake [23]: Active
- Drug transport [24]: Not Active
- Drug uptake [25]: Active
- Drug uptake [26]: Active
- Drug uptake [27]: Active
- Activity [28]: tde
- Drug uptake [29]: Active
- Drug transport [30]: 50%
- Drug transport [31]: 50%
- Drug uptake [32]: Active
- Drug transport [33]: Active
- Activity [34]: tde
- Drug transport [35]: Active

Compound: CO[C@@]1(NC(=O)Cc2cccs2)C(=O)N2C(C(=O)O)=C(COC(N)=O)CS[C@@H]21 [CEFOXITIN]
- inhibition (INH) [1]: Active
- inhibition (INH) [2]: Active
- inhibition (INH) [3]: Active

Next, values leading:

- inhibition (INH) [1]: Active
- inhibition (INH) [2]: Active
- inhibition (INH) [3]: Active
Compound: CC1=C(C(=O)O)N2C(=O)[C@@H](NC(=O)[C@H](N)c3ccccc3)[C@H]2SC1 [CEPHALEXIN ANHYDROUS]

- inhibition (INH) [1]: Active
- inhibition (INH) [2]: Active
- inhibition (INH) [3]: Active
Compound: CO/N=C(\C(=O)N[C@@H]1C(=O)N2C(C(=O)O)=C(COC(N)=O)CS[C@H]12)c1ccco1 [CEFUROXIME]

- inhibition (INH) [1]: Active
- inhibition (INH) [2]: Active
- inhibition (INH) [3]: Active
Compound: CO/N=C(\C(=O)N[C@@H]1C(=O)N2C(C(=O)O)=C(CSc3nc(=O)c(=O)[nH]n3C)CS[C@H]12)c1csc(N)n1 [CEFTRIAXONE]

- inhibition (INH) [1]: Active
- inhibition (INH) [2]: Active
- inhibition (INH) [3]: Active
Compound: CC1=C(C(=O)O)N2C(=O)[C@@H](NC(=O)[C@H](N)C3=CCC=CC3)[C@H]2SC1 [CEPHRADINE]
